{"source": "patent US11116771B2", "about": "“G protein-coupled receptor (GPCR) modulation by imipridones” (Oncoceutics, Inc., priority 2016, dated 2021)", "key": {"[1]": {"system": "Staphylococcus aureus ATCC 33591", "experiment": "MIC by micro-broth dilution, S. aureus ATCC 33591", "type": "cell-based", "settings": "Staphylococcus aureus"}, "[2]": {"system": "nuclear hormone receptors", "settings": "ONC201 2 or 20 μM (FIG. 5D)"}, "human DRD2 [3]": {"target": "T1, human DRD2 (Homo sapiens, UniProt P14416)", "T1 sequence (P14416 whole entry)": "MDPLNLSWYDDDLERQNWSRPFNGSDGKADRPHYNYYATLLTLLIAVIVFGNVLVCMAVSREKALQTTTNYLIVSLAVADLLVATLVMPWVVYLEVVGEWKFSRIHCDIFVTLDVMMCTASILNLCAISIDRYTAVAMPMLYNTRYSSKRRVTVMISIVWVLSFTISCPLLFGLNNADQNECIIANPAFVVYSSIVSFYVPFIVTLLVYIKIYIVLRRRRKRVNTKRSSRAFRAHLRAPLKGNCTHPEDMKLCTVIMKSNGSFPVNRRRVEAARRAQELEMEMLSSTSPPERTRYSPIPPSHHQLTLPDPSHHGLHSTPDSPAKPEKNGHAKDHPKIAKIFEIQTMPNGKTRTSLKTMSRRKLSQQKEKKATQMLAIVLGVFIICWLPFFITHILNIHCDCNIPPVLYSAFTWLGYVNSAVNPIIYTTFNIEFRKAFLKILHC", "experiment": "cell-based", "settings": "HEK-293T, read-out: inhibition of the DRD2 dopamine response"}, "HCT116, MDA-MB-231, U87 [4]": {"system": "HCT116, MDA-MB-231, U87", "settings": "about 1-5 mg/mL of ONC201, 72 hours"}, "MV411 AML cells": {"system": "MV411 AML cells", "experiment": "Cell viability, MV411 AML cells", "type": "cell-based"}, "kinome": {"system": "kinome", "settings": "in vitro kinase enzymatic activity, ONC201 1 μM (FIG. 5E)"}, "control GPCR": {"system": "control GPCR", "settings": "100 μM ONC201"}, "MV411 AML xenograft": {"system": "MV411 AML xenograft", "experiment": "MV411 AML xenograft model", "type": "in vivo, athymic nude mice", "settings": "oral weekly administration; ONC212 50 mg/kg, ONC201 at similar doses (FIG. 30A)"}, "DRD2L": {"target": "DRD2L (Homo sapiens, UniProt P14416)", "sequence (P14416 whole entry)": "as above", "experiment": "Gaddum/Schild analysis of arrestin recruitment to DRD2L", "type": "cell-based", "settings": "arrestin recruitment / cAMP reporters (FIGS. 5B, 5C, 5F)"}, "in vitro": {"experiment": "in vitro", "settings": "human, Cell viability of normal cells, about 1-5 mg/mL of ONC201, 72 hours"}, "human DRD2 [5]": {"target": "T1, human DRD2"}, "DRD4": {"target": "DRD4 (Homo sapiens, UniProt P21917)", "sequence (P21917 whole entry)": "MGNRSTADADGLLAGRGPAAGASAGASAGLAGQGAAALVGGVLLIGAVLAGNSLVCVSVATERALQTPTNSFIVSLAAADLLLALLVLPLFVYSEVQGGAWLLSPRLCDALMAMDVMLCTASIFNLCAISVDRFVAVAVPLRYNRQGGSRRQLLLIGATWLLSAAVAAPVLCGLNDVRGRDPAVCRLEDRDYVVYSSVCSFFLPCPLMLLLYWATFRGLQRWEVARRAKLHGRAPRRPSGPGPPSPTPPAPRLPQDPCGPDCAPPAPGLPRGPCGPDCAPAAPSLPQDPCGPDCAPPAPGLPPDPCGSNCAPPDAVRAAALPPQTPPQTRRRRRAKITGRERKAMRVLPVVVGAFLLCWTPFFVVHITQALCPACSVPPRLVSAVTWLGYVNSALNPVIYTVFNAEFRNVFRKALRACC", "settings": "arrestin recruitment reporter assay"}, "[6]": {"system": "Staphylococcus aureus ATCC 700699", "experiment": "MIC by micro-broth dilution, S. aureus ATCC 700699", "type": "cell-based", "settings": "Staphylococcus aureus"}, "[7]": {"system": "DRD2 (short and long isoforms)", "experiment": "β-arrestin recruitment GPCR reporter assay, DRD2", "type": "cell-based"}, "HCT116, MDA-MB-231, U87 [8]": {"system": "HCT116, MDA-MB-231, U87", "experiment": "cells", "settings": "Homo sapiens, 72 h, read-out: viability of tumor cells"}, "[9]": {"target": "DRD2 alanine-scan mutation library (Homo sapiens, UniProt P14416, V196A)", "sequence (P14416 whole entry V196A)": "as the sequence (P14416 whole entry) above, with V196A counted along it"}, "[10]": {"target": "DRD2 alanine-scan mutation library (Homo sapiens, UniProt P14416, Y192A)", "sequence (P14416 whole entry Y192A)": "as the sequence (P14416 whole entry) above, with Y192A counted along it"}, "[11]": {"target": "DRD2 alanine-scan mutation library (Homo sapiens, UniProt P14416, E95A)", "sequence (P14416 whole entry E95A)": "as the sequence (P14416 whole entry) above, with E95A counted along it"}, "[12]": {"target": "DRD2 alanine-scan mutation library (Homo sapiens, UniProt P14416, L81A)", "sequence (P14416 whole entry L81A)": "as the sequence (P14416 whole entry) above, with L81A counted along it"}, "[13]": {"target": "DRD2 alanine-scan mutation library (Homo sapiens, UniProt P14416, A177S)", "sequence (P14416 whole entry A177S)": "as the sequence (P14416 whole entry) above, with A177S counted along it"}, "[14]": {"target": "DRD2 alanine-scan mutation library (Homo sapiens, UniProt P14416, I397A)", "sequence (P14416 whole entry I397A)": "as the sequence (P14416 whole entry) above, with I397A counted along it"}, "[15]": {"target": "DRD2 alanine-scan mutation library (Homo sapiens, UniProt P14416, T165A)", "sequence (P14416 whole entry T165A)": "as the sequence (P14416 whole entry) above, with T165A counted along it"}, "[16]": {"target": "DRD2 alanine-scan mutation library (Homo sapiens, UniProt P14416, V91A)", "sequence (P14416 whole entry V91A)": "as the sequence (P14416 whole entry) above, with V91A counted along it"}, "[17]": {"system": "Staphylococcus aureus ATCC 29213", "experiment": "MIC by micro-broth dilution, S. aureus ATCC 29213", "type": "cell-based", "settings": "Staphylococcus aureus"}, "prolactin": {"system": "prolactin", "settings": "advanced solid tumors, ELISA in peripheral blood after ONC201"}, "DRD1": {"target": "DRD1 (Homo sapiens, UniProt P21728)", "sequence (P21728 whole entry)": "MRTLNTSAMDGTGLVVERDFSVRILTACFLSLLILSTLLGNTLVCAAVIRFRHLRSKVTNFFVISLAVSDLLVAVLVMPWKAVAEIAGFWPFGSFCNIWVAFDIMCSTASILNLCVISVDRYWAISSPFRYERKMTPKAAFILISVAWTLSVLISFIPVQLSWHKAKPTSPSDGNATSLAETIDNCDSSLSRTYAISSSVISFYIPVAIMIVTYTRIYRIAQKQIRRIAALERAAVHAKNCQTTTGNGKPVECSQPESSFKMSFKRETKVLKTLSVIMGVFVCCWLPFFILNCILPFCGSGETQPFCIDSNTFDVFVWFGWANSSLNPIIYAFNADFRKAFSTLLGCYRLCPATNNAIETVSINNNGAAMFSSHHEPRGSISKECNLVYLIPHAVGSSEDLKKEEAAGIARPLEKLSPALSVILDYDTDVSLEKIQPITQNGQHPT", "settings": "arrestin recruitment reporter assay"}, "[18]": {"experiment": "Rat non-GLP oral single dose study", "type": "in vivo", "settings": "in vivo; rat non-GLP oral single dose study; read-out: NOAEL"}, "DRD5": {"target": "DRD5 (Homo sapiens, UniProt P21918)", "sequence (P21918 whole entry)": "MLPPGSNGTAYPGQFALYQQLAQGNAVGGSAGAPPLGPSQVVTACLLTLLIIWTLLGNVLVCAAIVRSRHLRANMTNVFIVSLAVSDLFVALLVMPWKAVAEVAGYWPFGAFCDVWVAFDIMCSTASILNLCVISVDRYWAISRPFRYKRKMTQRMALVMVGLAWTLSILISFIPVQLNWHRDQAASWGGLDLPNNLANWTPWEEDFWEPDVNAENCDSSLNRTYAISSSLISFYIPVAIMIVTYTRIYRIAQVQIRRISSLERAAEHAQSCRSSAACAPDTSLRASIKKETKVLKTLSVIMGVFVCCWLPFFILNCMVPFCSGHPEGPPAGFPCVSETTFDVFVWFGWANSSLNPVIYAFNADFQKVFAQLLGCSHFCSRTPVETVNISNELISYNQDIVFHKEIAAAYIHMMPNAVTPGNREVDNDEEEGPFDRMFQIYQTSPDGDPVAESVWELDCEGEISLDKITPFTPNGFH", "experiment": "β-arrestin recruitment GPCR reporter assay, DRD5", "type": "cell-based"}}, "note": "Entries after “also recorded” stand apart in the source; their conditions may differ. Where two headings read alike, the source gives them in different places.", "data": [{"smiles": "Cc1ccccc1CN1C(=O)C2=C(CCN(Cc3ccccc3)C2)N2CCN=C12", "note": "[ONC201, 7-benzyl-4-(2-methylbenzyl)-1,2,6,7,8,9-hexahydroimidazo [1,2-a]pyrido [3,4-e]pyrimidin-5(1H)-one]", "values": [{"measurement": "MIC", "setting": "[1]; ATCC33591", "result": "> 100", "unit": "µg/mL"}, {"measurement": "MIC99", "setting": "[1]; ATCC33591, 24 h", "result": "> 100", "unit": "µg/mL"}, {"measurement": "MIC", "setting": "[1]; ATCC33591, 24 h, read-out: MIC95", "result": "> 100", "unit": "µg/mL"}, {"measurement": "MIC", "setting": "[1]; ATCC33591, 24 h, read-out: MIC, Visual", "result": "> 100", "unit": "µg/mL"}, {"measurement": "interaction with nuclear hormone receptors", "setting": "[2]", "result": "no significant interactions"}, {"measurement": "inhibition at 100 µM", "setting": "human DRD2 [3]", "result": "> 95", "unit": "%"}, {"measurement": "viability of tumor cells", "setting": "HCT116, MDA-MB-231, U87 [4]", "result": "≤ 50", "unit": "%"}, {"measurement": "exposure required for efficacy", "setting": "MV411 AML cells", "result": "24 to 48", "unit": "h"}, {"measurement": "interaction with the kinome", "setting": "kinome", "result": "no significant interactions"}, {"measurement": "effect on calcium flux of control GPCR", "setting": "control GPCR", "result": "no effect"}, {"measurement": "leukemia xenograft tumor growth", "setting": "MV411 AML xenograft", "result": "not efficacious"}, {"measurement": "antagonism of DRD2L", "setting": "DRD2L", "result": "direct, competitive antagonism"}, {"measurement": "viability at 72 h", "setting": "in vitro", "result": "≥ 75", "unit": "%"}, {"measurement": "inhibition of DRD2 dopamine-induced calcium flux", "setting": "human DRD2 [5]", "result": "completely inhibited; also recorded: complete inhibition"}, {"measurement": "GPCR activity, DRD4", "setting": "DRD4", "result": "weaker potency"}, {"measurement": "MIC", "setting": "[6]; ATCC700699", "result": "> 100", "unit": "µg/mL"}, {"measurement": "MIC99", "setting": "[6]; ATCC700699, 48 h", "result": "> 100", "unit": "µg/mL"}, {"measurement": "MIC", "setting": "[6]; ATCC700699, 48 h, read-out: MIC95", "result": "> 100", "unit": "µg/mL"}, {"measurement": "MIC", "setting": "[6]; ATCC700699, 48 h, read-out: MIC, Visual", "result": "> 100", "unit": "µg/mL"}, {"measurement": "GPCR activity, DRD2", "setting": "[7]", "result": "selectively antagonizes; also recorded: antagonized"}, {"measurement": "viability at 5000 µg/mL", "setting": "HCT116, MDA-MB-231, U87 [8]", "result": "< 25", "unit": "%"}, {"measurement": "Calcium Flux as a % of flux with WT DRD2 (100), ONC201 100 μM", "setting": "[9]", "result": 79, "unit": "%"}, {"measurement": "Calcium Flux as a % of flux with WT DRD2 (100), ONC201 250 μM", "setting": "[9]", "result": 22, "unit": "%"}, {"measurement": "Calcium Flux as a % of flux with WT DRD2 (100), ONC201 100 μM", "setting": "[10]", "result": 85, "unit": "%"}, {"measurement": "Calcium Flux as a % of flux with WT DRD2 (100), ONC201 250 μM", "setting": "[10]", "result": 11, "unit": "%"}, {"measurement": "Calcium Flux as a % of flux with WT DRD2 (100), ONC201 100 μM", "setting": "[11]", "result": 97, "unit": "%"}, {"measurement": "Calcium Flux as a % of flux with WT DRD2 (100), ONC201 250 μM", "setting": "[11]", "result": 39, "unit": "%"}, {"measurement": "Calcium Flux as a % of flux with WT DRD2 (100), ONC201 100 μM", "setting": "[12]", "result": 63, "unit": "%"}, {"measurement": "Calcium Flux as a % of flux with WT DRD2 (100), ONC201 250 μM", "setting": "[12]", "result": 20, "unit": "%"}, {"measurement": "Calcium Flux as a % of flux with WT DRD2 (100), ONC201 100 μM", "setting": "[13]", "result": 77, "unit": "%"}, {"measurement": "Calcium Flux as a % of flux with WT DRD2 (100), ONC201 250 μM", "setting": "[13]", "result": 26, "unit": "%"}, {"measurement": "Calcium Flux as a % of flux with WT DRD2 (100), ONC201 100 μM", "setting": "[14]", "result": 122, "unit": "%"}, {"measurement": "Calcium Flux as a % of flux with WT DRD2 (100), ONC201 250 μM", "setting": "[14]", "result": 89, "unit": "%"}, {"measurement": "Calcium Flux as a % of flux with WT DRD2 (100), ONC201 100 μM", "setting": "[15]", "result": 67, "unit": "%"}, {"measurement": "Calcium Flux as a % of flux with WT DRD2 (100), ONC201 250 μM", "setting": "[15]", "result": 28, "unit": "%"}, {"measurement": "Calcium Flux as a % of flux with WT DRD2 (100), ONC201 100 μM", "setting": "[16]", "result": 94, "unit": "%"}, {"measurement": "Calcium Flux as a % of flux with WT DRD2 (100), ONC201 250 μM", "setting": "[16]", "result": 58, "unit": "%"}, {"measurement": "MIC", "setting": "[17]; ATCC29213", "result": "> 100", "unit": "µg/mL"}, {"measurement": "MIC99", "setting": "[17]; ATCC29213, 24 h", "result": "> 100", "unit": "µg/mL"}, {"measurement": "MIC", "setting": "[17]; ATCC29213, 24 h, read-out: MIC95", "result": "> 100", "unit": "µg/mL"}, {"measurement": "MIC", "setting": "[17]; ATCC29213, 24 h, read-out: MIC, Visual", "result": "> 100", "unit": "µg/mL"}, {"measurement": "patients exhibiting induction of prolactin", "setting": "prolactin", "result": "10/11"}, {"measurement": "GPCR activity, DRD1", "setting": "DRD1", "result": "no antagonism"}, {"measurement": "NOAEL", "setting": "[18]", "result": 225, "unit": "mg/kg"}, {"measurement": "GPCR activity, DRD5", "setting": "DRD5", "result": "no antagonism"}]}]}
